Among the data in patent US7202261B2, “Calcilytic compounds” (NPS Pharmaceuticals, Inc., priority 1996, dated 2007) are IC50 values, retold here.

The assay deals with T1, human calcium receptor (Homo sapiens, UniProt P41180).
T1 construct: expressed in transfected cells
T1 sequence (P41180 20-1078): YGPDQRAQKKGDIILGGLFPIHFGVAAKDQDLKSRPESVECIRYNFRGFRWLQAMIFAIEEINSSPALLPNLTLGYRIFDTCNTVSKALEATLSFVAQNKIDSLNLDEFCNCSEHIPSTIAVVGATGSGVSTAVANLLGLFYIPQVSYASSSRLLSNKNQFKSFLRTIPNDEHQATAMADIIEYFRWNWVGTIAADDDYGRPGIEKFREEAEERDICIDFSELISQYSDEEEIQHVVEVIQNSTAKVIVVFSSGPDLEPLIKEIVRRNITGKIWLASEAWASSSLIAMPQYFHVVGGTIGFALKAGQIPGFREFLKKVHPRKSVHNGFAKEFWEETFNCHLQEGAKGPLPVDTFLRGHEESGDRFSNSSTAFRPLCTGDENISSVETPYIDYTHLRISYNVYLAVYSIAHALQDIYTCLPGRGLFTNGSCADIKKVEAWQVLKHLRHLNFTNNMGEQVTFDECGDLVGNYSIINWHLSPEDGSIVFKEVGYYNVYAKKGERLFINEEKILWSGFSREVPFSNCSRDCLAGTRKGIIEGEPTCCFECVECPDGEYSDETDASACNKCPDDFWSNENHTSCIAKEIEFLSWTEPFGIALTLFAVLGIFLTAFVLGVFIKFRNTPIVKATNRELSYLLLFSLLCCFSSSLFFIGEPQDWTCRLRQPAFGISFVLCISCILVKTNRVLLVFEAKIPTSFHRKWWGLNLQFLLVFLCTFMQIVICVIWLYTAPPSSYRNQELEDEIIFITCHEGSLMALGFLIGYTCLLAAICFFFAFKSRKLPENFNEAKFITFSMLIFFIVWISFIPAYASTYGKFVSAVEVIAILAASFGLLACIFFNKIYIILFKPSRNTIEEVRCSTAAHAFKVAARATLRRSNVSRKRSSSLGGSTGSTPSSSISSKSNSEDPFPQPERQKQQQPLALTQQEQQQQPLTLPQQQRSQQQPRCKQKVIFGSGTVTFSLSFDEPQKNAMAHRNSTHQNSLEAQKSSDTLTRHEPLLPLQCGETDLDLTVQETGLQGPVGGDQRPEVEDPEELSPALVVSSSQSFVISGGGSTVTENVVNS
Put plainly: Calcium Receptor Inhibitor Assay. It counts as cell-based. The method, then: This example illustrates the use of the Calcium Receptor Inhibitor Assay. […] Res. 10 Suppl. […] Intracellular Ca^2+ was measured using fluo-3, a fluorescent calcium indicator.
The procedure was as follows:
1. Cells were maintained in T-150 flasks in selection media (DMEM supplemented with 10% fetal bovine serum and 200 μg/mL hygromycin B), under 5% CO2:95% air at 37° C. and were grown up to 90% confluency.
2. The medium was decanted and the cell monolayer was washed twice with phosphate-buffered saline (PBS) kept at 37° C. After the second wash, 6 mL of 0.02% EDTA in PBS was added and incubated for 4 minutes at 37° C. Following the incubation, cells were dispersed by gentle agitation.
3. Cells from 2 or 3 flasks were pooled and pelleted (100×g). The cellular pellet was resuspended in […] of SPF-PCB+ and pelleted again by centrifugation. This washing was done twice.
SPF-PCB was made up and stored at 4° C. On the day of use, SPF-PCB was supplemented with 1 mg/mL of D-glucose and 1 mM CaCl2 and then split into two fractions. To one fraction, bovine serum albumin (BSA; fraction V, ICN) was added at 5 mg/mL (SPF-PCB+). This buffer was used for washing, loading and maintaining the cells. The BSA-free fraction was used for diluting the cells in the cuvette for measurements of fluorescence.
5. Following the incubation period, the cells were pelleted by centrifugation. The resulting pellet was washed with SPF-PCB+. After this washing, cells were resuspended in SPF-PCB+ at a density of 1–2×10^6 cells/mL.
6. For recording fluorescent signals, 300 μL of cell suspension were diluted in 1.2 mL of SPF buffer containing 1 mM CaCl2 and 1 mg/mL of D-glucose. Measurements of fluorescence were performed at 37° C. with constant stirring using a spectrofluorimeter. […] To calibrate fluorescence signals, digitonin (5 mg/mL in ethanol) was added to obtain Fmax, and the apparent Fmin was determined by adding Tris-EGTA (2.5 M Tris-Base, 0.3 M EGTA).
7. To determine the potential calcilytic activity of test compounds, cells were incubated with test compound (or vehicle as a control) for 90 seconds before increasing the concentration of extracellular Ca^2+ from 1 to 2 mM. Calcilytic compounds were detected by their ability to block, in a concentration-dependent manner, increases in the concentration of intracellular Ca^2+ elicited by extracellular Ca^2+.

Setting [1] is: HEK 293 4.0–7 cells stably expressing the human calcium receptor, fluo-3, read-out: IC50 for blocking increases of intracellular Ca2+ elicited by extracellular Ca2+.

Where a name gives a salt, the structure may show the parent alone. Read-outs that look alike come from different tables or passages of the source. Bounds are passed on as bounds.

In general, IC50 refers to the point on the concentration scale where inhibition reaches its midpoint.

Take `COc1ccc(CC(C)(C)NC[C@@H](O)COc2ccc(C(C)(C)C)cc2)cc1` (racemic) [Compound 20, (R) and (S)—N-[2-Hydroxy-3-(4-t-butylphenoxy)propyl]-1,1-dimethyl-2-(4-methoxyphenyl)ethylamine Hydrochloride]: the IC50 under setting [1] is < 1 µM.

Turning to `COc1ccc(CC(C)(C)NCC(O)CCc2cccc3ccccc23)cc1` (racemic) [Compound 162, (R/S)-1-[[2,2-dimethyl-(4′methoxy)phenethyl]]amino-2-hydroxy-4(1′-naphthyl)-butane], the IC50 under setting [1] was < 10 µM.

Regarding `COc1ccc(CC(C)(C)NCC(O)CCc2cccc(Cl)c2Cl)cc1` (racemic) [Compound 163], the IC50 was < 1 µM.

`COc1ccc(CC(C)(C)NCC(O)CCCC[N+](=O)[O-])cc1` (racemic) [Compound 164, (R/S)-1-nitro-5-hydroxy-6-[1,1-dimethyl-2-(4-methoxyphenyl)]hexane]: the IC50 was < 50 µM.

As for `COc1ccc(CC(C)(C)NC[C@@H](O)COc2cccc3ccccc23)cc1` (single isomer, unassigned) [Compound 105, Hydrochloride], the IC50 under setting [1] is < 1 µM.

As for `COc1ccc(CC(C)(C)NC[C@H](O)COc2cccc3ccccc23)cc1` (single isomer, unassigned) [Compound 106, Hydrochloride], the IC50 under setting [1] is < 1 µM.

For the compound `COc1ccc(CC(C)(C)NCC(O)COc2cccc3[nH]c(O)nc23)cc1` (centres unmarked) [Compound 1], under setting [1], the IC50 was < 50 µM.

As to `CC(C)(Cc1ccc(F)cc1)NCC(O)COc1cccc2ccccc12` (centres unmarked) [Compound 2, N-[2-Hydroxy-3-(1-naphthoxy)propyl]-1,1-dimethyl-2-(4-fluorophenyl)ethylamine Hydrochloride], the IC50 under setting [1] is < 10 µM.

In the case of `COc1ccc(CC(C)(C)NCC(O)COc2ccccc2)cc1` (centres unmarked) [Compound 3, N-(2-Hydroxy-3-phenoxypropyl)-1,1-dimethyl-2-(4-methoxyphenyl)ethylamine Hydrochloride], the 50% inhibitory concentration (IC50) under setting [1] is < 10 µM.

Consider `COc1ccc(CC(C)(C)NCC(O)COc2ccc(Cl)cc2)cc1` (centres unmarked) [Compound 5, N-[2-Hydroxy-3-(4-chlorophenoxy)propyl]-1,1-dimethyl-2-(4-methoxyphenylethylamine Hydrochloride], for which the IC50 under setting [1] is < 1 µM.

Take `COc1ccc(CC(C)(C)NCC(O)COc2ccc(C(C)(C)C)cc2)cc1` (centres unmarked) [Compound 6, N-[2-Hydroxy-3-(4-t-butylphenoxy)propyl]-1,1-dimethyl-2-(4-methoxyphenyl)ethylamine Hydrochloride]: the IC50 under setting [1] was < 1 µM.

For `COc1ccc(CC(C)(C)NCC(O)COc2ccc(OC)cc2)cc1` (centres unmarked) [Compound 7, N-[2-Hydroxy-3-(4-methoxyphenoxy)propyl]-1,1-dimethyl-2-(4-methoxyphenyl)ethylamine Hydrochloride], the IC50 under setting [1] is < 10 µM.

On to `COc1ccc(CC(C)(C)NCC(O)COc2ccccc2C)cc1` (centres unmarked) [Compound 8, N-[2-Hydroxy-3-(2-methylphenoxy)propyl]-1,1-dimethyl-2-(4-methoxyphenyl)ethylamine Hydrochloride], for which the concentration for half-maximal inhibition (IC50) under setting [1] was < 10 µM.

With `COc1ccc(CC(C)(C)NCC(O)COc2cccc3[nH]c(C(N)=O)cc23)cc1` (centres unmarked) [Compound 9, N-[2-Hydroxy-3-(4-(2-carboxamido)indoloxy)propyl]-1,1-dimethyl-2-(4-methoxyphenyl)ethylamine Hydrochloride], the IC50 under setting [1] was < 50 µM.

Turning to `COc1ccc(CC(C)(C)NCCCOc2ccccc2)cc1` [Compound 17, N-(3-Phenoxypropyl)-1,1-dimethyl-2-(4-methoxyphenyl)ethylamine Hydrochloride], the IC50 under setting [1] was < 50 µM.

Consider `COc1ccc(CC(C)(C)NCC(O)COc2cccc3ccccc23)cc1` (centres unmarked) [Compound 19, N-[2-Hydroxy-3-(1-naphthoxy)propyl]-1,1-dimethyl-2-(4-methoxyphenyl)ethylamine Hydrochloride], for which the IC50 under setting [1] was < 1 µM.

With `COc1ccc(CC(C)(C)NCCCc2ccccc2)cc1` [Compound 22, N-(3-phenylpropyl)-1,1-dimethyl-2(4-methoxyphenyl)ethylamine], the IC50 was > 50 µM.

With `COc1ccc(CC(C)(C)NCCCCc2ccccc2)cc1` [Compound 24, N-(4-phenylbutyl)-1,1-dimethyl-2-(4-methoxyphenyl)ethylamine], the IC50 was > 50 µM.

With `COc1ccc(CC(C)(C)NCC(O)COC(C)(C)C)cc1` (centres unmarked) [Compound 25, N-(2-Hydroxy-3-t-butoxypropyl)-1,1-dimethyl-2-(4-methoxyphenyl)ethylamine], the half-inhibitory concentration (IC50) is < 50 µM.

On to `CCCCOCC(O)CNC(C)(C)Cc1ccc(OC)cc1` (centres unmarked) [Compound 26, N-(2-Hydroxy-3-butoxypropyl)-1,1-dimethyl-2-(4-methoxyphenyl)ethylamine], for which the IC50 is < 10 µM.

In the case of `COc1ccc(CC(C)(C)NCC(O)COC(C)C)cc1` (centres unmarked) [Compound 27, N-(2-Hydroxy-3-isoproproxypropyl)-1,1-dimethyl-2-(4-methoxyphenyl)ethylamine], the IC50 was < 10 µM.

Take `CCCCC(CC)COCC(O)CNC(C)(C)Cc1ccc(OC)cc1` (centres unmarked) [Compound 28, N-[2-Hydroxy-3-(2-ethyl)hexanoxypropyl]-1,1-dimethyl-2-(4-methoxyphenyl)ethylamine]: the IC50 was < 1 µM.

With `C=CCOCC(O)CNC(C)(C)Cc1ccc(OC)cc1` (centres unmarked) [Compound 29, N-(2-Hydroxy-3-allyloxypropyl)-1,1-dimethyl-2-(4-methoxyphenyl)ethylamine], the IC50 is < 50 µM.

As for `COc1ccc(CC(C)(C)NCc2ccccc2)cc1` [Compound 34, N-(Benzyl)-1,1-dimethyl-2-(4-methoxyphenyl)ethylamine], the IC50 is > 50 µM.

With `COc1ccc(CC(C)(C)NCC(O)COc2ccc3ccccc3c2)cc1` (centres unmarked) [Compound 35, N-[2-Hydroxy-3-(2-naphthoxy)propyl]-1,1-dimethyl-2-(4-methoxyphenyl)ethylamine Hydrochloride], the IC50 under setting [1] was < 10 µM.

Regarding `COc1ccc(CC(C)(C)NCCCCOc2ccccc2)cc1` [Compound 36, N-(4-phenoxybutyl)-1,1-dimethyl-2-(4-methoxyphenyl)ethylamine], the IC50 under setting [1] is > 50 µM.

Regarding `COc1ccc(CC(C)(C)NCC(O)Cc2ccccc2)cc1` (centres unmarked) [Compound 37, N-(2-Hydroxy-3-phenylpropyl)-1,1-dimethyl-2-(4-methoxyphenyl)ethylamine Hydrochloride], the IC50 is < 10 µM.

As for `COc1ccc(CC(C)(C)NCC(O)COc2cccc(F)c2)cc1` (centres unmarked) [Compound 39, N-[2-Hydroxy-3-(3-fluorophenoxy)propyl]-1,1-dimethyl-2-(4-methoxyphenyl)ethylamine Hydrochloride], under setting [1], the IC50 was < 10 µM.

Turning to `COc1ccc(CC(C)(C)NCC(O)COc2ccccc2Cl)cc1` (centres unmarked) [Compound 40, N-[2-Hydroxy-3-(2-chlorophenoxy)propyl]-1,1-dimethyl-2-(4-methoxyphenyl)ethylamine Hydrochloride], the IC50 under setting [1] is < 1 µM.
